In PMC10414684, “Novel integrated computational AMP discovery approaches highlight diversity in the helminth AMP repertoire” (PLOS Pathogens, 2023):
No end group written: not given here.

Experiments:
E. faecalis JH2-2 = test: microbe, parasite or virus in culture; format: cell-based, Enterococcus faecalis
Protocol: (§1) Prioritised helminth AMP-LPs were synthesised at >70% purity (Genosphere Biotechnologies). […] Peptides and control antibiotics [Ciprofloxacin (for gram-negative species; Sigma-Aldrich) and Vancomycin hydrochloride (for gram-positive species; Sigma-Aldrich)] were dissolved in sterile ultrapure water at a concentration of 5.12mg/ml. Minimum inhibitory concentrations (MICs) were determined for gram-positive and gram-negative bacterial isolates (see Table 3 for species) using microbroth dilution assays as described previously. Briefly, a single colony from each bacterial species was inoculated in cation-adjusted Mueller Hinton Broth (MHB) and grown for 18–24 hours at 37°C with shaking (225rpm) before being adjusted to a final bacterial density of 5x10^5 colony forming units (CFU) per ml. Peptides and Vancomycin hydrochloride were diluted using sterile MHB in sterile U-bottom 96 well polypropylene microplates (Greiner Bio One, UK) to give a concentration gradient ranging from 512–0.25μg/ml. Ciprofloxacin was further diluted in sterile MHB to give a concentration gradient ranging from 32–0.02μg/ml. Microplates were incubated at 37°C for 18–24 hours. Plates were assessed for visible growth and the MIC was defined as the lowest concentration of peptide or antibiotic that inhibited visible growth of a bacterial culture after an 18–24-hour incubation. MIC data were validated by positive and negative control antibiotic MIC data for each bacterial isolate.

[1] = tested on: gram-positive and gram-negative bacterial isolates; format: cell-based
Protocol: as §1, with “MIC data were validated by positive and negative control antibiotic MIC data for each bacterial isolate.” left out

[2] = Computationally predicted from Kunitz inhibitor protein; ref [21]; cited from earlier work
Source text: Table 4 Reported AMPs from Schistosoma mansoni. | column: Activity reported

E. coli K12 = test: Minimum inhibitory concentration, microbroth dilution; format: cell-based, Escherichia coli; settings: cation-adjusted MHB, 5x10^5 CFU/ml, 37°C, 18–24 h, visible growth; for MIC E. coli K12 (-): peptides 512–0.25μg/ml, >70% purity (Cecropin P1 >95%), Ciprofloxacin 32–0.02μg/ml
Protocol: as §1

A. baumannii DSM 30007 = test: as above; format: cell-based, Acinetobacter baumannii; settings: cation-adjusted MHB, 5x10^5 CFU/ml, 37°C, 18–24 h, visible growth; for MIC A. baumannii DSM 30007 (-): peptides 512–0.25μg/ml, >70% purity (Cecropin P1 >95%), Ciprofloxacin 32–0.02μg/ml
Protocol: as §1

P. aeruginosa PA01 = test: as above; format: cell-based, Pseudomonas aeruginosa; settings: cation-adjusted MHB, 5x10^5 CFU/ml, 37°C, 18–24 h, visible growth; for MIC P. aeruginosa PA01 (-): peptides 512–0.25μg/ml, >70% purity (Cecropin P1 >95%), Ciprofloxacin 32–0.02μg/ml
Protocol: as §1

S. aureus EMRSA-15 = test: microbe, parasite or virus in culture; format: cell-based, Staphylococcus aureus; settings: Methicillin-resistant, microbroth dilution, cation-adjusted MHB, 5x10^5 CFU/ml, 37°C, 18–24 h, visible growth; for MIC S. aureus EMRSA-15 (+): peptides and Vancomycin hydrochloride 512–0.25μg/ml, peptides >70% purity (Cecropin P1 >95%)
Protocol: as §1

S. aureus RN4220 = test: microbe, parasite or virus in culture; format: cell-based, Staphylococcus aureus; settings: Methicillin-Sensitive, microbroth dilution, cation-adjusted MHB, 5x10^5 CFU/ml, 37°C, 18–24 h, visible growth; for MIC S. aureus RN4220 (+): peptides and Vancomycin hydrochloride 512–0.25μg/ml, peptides >70% purity (Cecropin P1 >95%)
Protocol: as §1

[3] = microbroth dilution, cation-adjusted MHB, 5x10^5 CFU/ml, 37°C, 18–24 h, visible growth, peptides and Vancomycin hydrochloride 512–0.25μg/ml, peptides >70% purity (Cecropin P1 >95%)

Row | Substance | MIC E. coli K12 (-) (E. coli K12) | MIC A. baumannii DSM 30007 (-) (A. baumannii DSM 30007) | MIC P. aeruginosa PA01 (-) (P. aeruginosa PA01) | MIC S. aureus EMRSA-15 (+) (S. aureus EMRSA-15) | MIC S. aureus RN4220 (+) (S. aureus RN4220) | MIC E. faecalis JH2-2 (+) (E. faecalis JH2-2; [3]) | also measured
1 | GFGKWVKKKWGSVRKGASKLVKGVKKVFPKKGIPIIRYERRF [nAMP-LP-249] | – | – | – | – | – | – | MIC E. faecalis JH2-2 (+) (E. faecalis JH2-2; JH2-2): 16 µg/mL; MIC against gram-negative species screened [1]: 8 µg/mL
2 | GILDIKNKVSNLF [Schistocin-3] | – | – | – | – | – | – | Activity reported [2]: Antibacterial Antifungal
3 | GILDIKNKVSNLFKKIK [Schistocin-2] | – | – | – | – | – | – | Activity reported [2]: Antifungal
4 | GILDIKNKVSNLFKKIKGEK [Schistocin-1] | – | – | – | – | – | – | Activity reported (all activity) [2]: All activity >100μM
5 | GLGKSLKKIGRKIDKGFRKIRDRAGASVSFGSGQKPQGSIQISPV-NH2 [nAMP-LP-617] | 4 µg/mL | 8 µg/mL | 32 µg/mL | / (/ indicates that there was no activity at the highest concentration of peptide used (512μg/ml)) | / (/ indicates that there was no activity at the highest concentration of peptide used (512μg/ml)) | / (/ indicates that there was no activity at the highest concentration of peptide used (512μg/ml)) | MIC (E. coli K12; read-out: MIC E. coli K12 (-), μM in brackets): 1 µM; MIC (A. baumannii DSM 30007; read-out: MIC A. baumannii DSM 30007 (-), μM in brackets): 2 µM; MIC (P. aeruginosa PA01; read-out: MIC P. aeruginosa PA01 (-), μM in brackets): 7 µM; MIC against gram-negative species screened [1]: 4 to 32 µg/mL
6 | GTFWKAVGAGALIGGGAALLSKAFK[nh2] [nAMP-LP-18, nematode AMP-like peptide identified in four Meloidogyne species] | / (/ indicates that there was no activity at the highest concentration of peptide used (512μg/ml)) | / (/ indicates that there was no activity at the highest concentration of peptide used (512μg/ml)) | / (/ indicates that there was no activity at the highest concentration of peptide used (512μg/ml)) | 64 µg/mL | 64 µg/mL | 64 µg/mL | MIC S. aureus EMRSA-15 (+), μM in brackets (S. aureus EMRSA-15): 27 µM; MIC S. aureus RN4220 (+), μM in brackets (S. aureus RN4220): 27 µM; MIC E. faecalis JH2-2 (+), μM in brackets (E. faecalis JH2-2; microbroth dilution, cation-adjusted MHB, 5x10^5 CFU/ml, 37°C, 18–24 h, visible growth): 27 µM
7 | ISKFLKGAAIAGGLAVAGAVAYKAYKNYKKNQEQQAAATGRK [nAMP-LP-11, nematode AMP-like peptide selected for synthesis and MIC screening] | / (/ indicates that there was no activity at the highest concentration of peptide used (512μg/ml)) | / (/ indicates that there was no activity at the highest concentration of peptide used (512μg/ml)) | / (/ indicates that there was no activity at the highest concentration of peptide used (512μg/ml)) | / (/ indicates that there was no activity at the highest concentration of peptide used (512μg/ml)) | / (/ indicates that there was no activity at the highest concentration of peptide used (512μg/ml)) | / (/ indicates that there was no activity at the highest concentration of peptide used (512μg/ml)) | –
